Measured values reported in article PMC3540847 (Journal of Lipid Research, 2012).
Where a name gives a salt, the structure may show the parent alone.

How the values were obtained:
[1] = biological target: T1, skAsbt (Leucoraja erinaceus, UniProt I4CJQ7); assay: competition of 3H-TCA uptake, transfected COS-7 cells; assay type: cell-based; conditions: 10 μM 3H-TCA, Na+ medium, 10 min
T1 sequence (I4CJQ7 1-393): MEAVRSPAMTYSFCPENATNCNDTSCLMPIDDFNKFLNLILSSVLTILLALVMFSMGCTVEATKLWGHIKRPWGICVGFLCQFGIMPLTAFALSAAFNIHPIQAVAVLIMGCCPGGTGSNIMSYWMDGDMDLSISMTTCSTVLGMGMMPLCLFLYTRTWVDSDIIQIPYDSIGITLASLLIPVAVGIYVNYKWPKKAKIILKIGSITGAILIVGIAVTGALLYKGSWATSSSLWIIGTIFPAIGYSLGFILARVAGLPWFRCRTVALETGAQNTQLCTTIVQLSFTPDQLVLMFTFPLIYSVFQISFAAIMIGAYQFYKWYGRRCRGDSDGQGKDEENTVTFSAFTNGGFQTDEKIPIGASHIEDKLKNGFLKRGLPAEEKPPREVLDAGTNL

[2] = biological target: T2, hASBT (Homo sapiens, UniProt Q12908); assay: as above; assay type: cell-based; conditions: 10 μM 3H-TCA, Na+ medium, 10 min
T2 sequence (Q12908 1-348): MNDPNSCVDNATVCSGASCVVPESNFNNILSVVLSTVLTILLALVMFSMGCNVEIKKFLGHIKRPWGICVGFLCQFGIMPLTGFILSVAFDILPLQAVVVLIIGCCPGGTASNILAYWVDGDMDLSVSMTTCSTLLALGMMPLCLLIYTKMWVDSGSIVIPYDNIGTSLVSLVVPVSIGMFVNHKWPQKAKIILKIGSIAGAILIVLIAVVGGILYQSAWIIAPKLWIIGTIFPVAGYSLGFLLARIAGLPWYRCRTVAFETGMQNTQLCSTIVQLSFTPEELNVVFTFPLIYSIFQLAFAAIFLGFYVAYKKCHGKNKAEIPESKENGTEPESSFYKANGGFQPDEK

Row | Structure (SMILES) | inhibition of uptake at 100 μM [1] | inhibition of uptake at 100 μM [2]
1 | C[C@H](CCCOS(=O)(=O)O)[C@H]1CC[C@H]2[C@@H]3[C@H](O)C[C@H]4C[C@H](O)CC[C@]4(C)[C@H]3C[C@H](O)[C@]12C [5α-PZS] | significantly reduced ^3H-TCA transport activity in both skAsbt and hASBT | significantly reduced ^3H-TCA transport activity in both skAsbt and hASBT
2 | C[C@H](CCCC(CO)COS(=O)(=O)O)[C@H]1CC[C@H]2[C@@H]3[C@H](O)C[C@H]4C[C@H](O)CC[C@]4(C)[C@H]3C[C@H](O)[C@]12C (stereo partly drawn) [5α-cyprinol sulfate] | significantly reduced ^3H-TCA transport activity in both skAsbt and hASBT | significantly reduced ^3H-TCA transport activity in both skAsbt and hASBT
3 | C[C@H](CCC(=O)NCC(=O)O)[C@H]1CC[C@H]2[C@@H]3[C@H](O)C[C@@H]4C[C@H](O)CC[C@]4(C)[C@H]3CC[C@]12C [GCDCA] | significantly reduced ^3H-TCA transport activity in both skAsbt and hASBT | significantly reduced ^3H-TCA transport activity in both skAsbt and hASBT
4 | C[C@H](CCC(=O)NCCS(=O)(=O)O)[C@H]1CC[C@H]2[C@@H]3[C@H](O)C[C@@H]4C[C@H](O)CC[C@]4(C)[C@H]3CC[C@]12C [TCDCA] | significantly reduced ^3H-TCA transport activity in both skAsbt and hASBT | significantly reduced ^3H-TCA transport activity in both skAsbt and hASBT
5 | C[C@H](CCC(=O)NCCS(=O)(=O)O)[C@H]1CC[C@H]2[C@@H]3[C@@H](O)C[C@@H]4C[C@H](O)CC[C@]4(C)[C@H]3CC[C@]12C [TUDCA] | – | TUDCA effectively reduced ^3H-TCA transport activity in hASBT but not in skAsbt
6 | O=C1OC(c2ccc(O)c(S(=O)(=O)O)c2)(c2ccc(O)c(S(=O)(=O)O)c2)c2c(Br)c(Br)c(Br)c(Br)c21 [bromosulfophtalein] | bromosulfophtalein significantly inhibited both transporters | bromosulfophtalein significantly inhibited both transporters
7 | C[C@H](CCC(=O)NCCS(=O)(=O)O)[C@H]1CC[C@H]2[C@@H]3CC[C@@H]4C[C@H](OS(=O)(=O)O)CC[C@]4(C)[C@H]3CC[C@]12C [taurolithocholic acid-3-sulfate] | significantly reduced ^3H-TCA transport activity in both skAsbt and hASBT | –
8 | C[C@H](CCC(=O)NCCS(=O)(=O)O)[C@H]1CC[C@H]2[C@@H]3CC[C@@H]4C[C@H](O)CC[C@]4(C)[C@H]3CC[C@]12C [taurolithocholic acid] | significantly reduced ^3H-TCA transport activity in both skAsbt and hASBT | significantly reduced ^3H-TCA transport activity in both skAsbt and hASBT
